{"source": "patent EP0447186A1", "about": "“N-acylated cyclohexapeptide compounds” (MERCK & CO. INC., priority 1990, dated 1991)", "test_system": "Candida albicans", "assay": "Candida albicans bioassay", "type": "cell-based", "settings": "bioassay used to monitor HPLC fractions", "experimental": "In carrying out the reaction, Compound A, either as a purified compound or as a partially purified sample obtained from the deacylation of Compound B, is dissolved in dry dimethylformamide and the resulting solution intimately contacted with RCOX. The order of addition is not critical. The resulting mixture is stirred at room temperature for about 16 to 20 hours (conveniently overnight) whereupon a reaction takes place with the formation of Compound I. At the end of this period, the dimethylformamide is removed by concentrating in vacuo at 40°C and the resulting residue triturated, preferably sequentially, twice with ether, and then filtered. The filter cake product is generally a free flowing solid and is purified by reverse phase HPLC, typically in 0.5 gram aliquots employing acetonitrile/water as eluting agent. Fractions containing the purified product as determined by C. albicans assay, by U.V. or by refractive index are combined and first concentrated under reduced pressure and then lyophilized to separate the product.", "note": "Starred links: 1 amine or outer side, 2 acyl side, 3 side chain; linkers in the order of their positions; H or OH if unused. Positions of bridges follow the written chain, without caps; N, C: chain ends. Non-standard residues stand in square brackets, D forms with d. Residues, ends and D or L forms follow the SMILES beside them. ξ: configuration not given here. ξOrn(4,5-diOH) = O=C(C(CC(O)C(O)N[*:3])N[*:1])[*:2]; ξhTyr(βξ-OH,γξ-OH) = NC(C(=O)O)C(O)C(O)c1ccc(O)cc1; X1 = NC(=O)CC(O)C(N[*:1])C(=O)[*:2]; X2 = O=C(C1C(O)CCN1[*:1])[*:2]; Hyp = O=C(O)[CH]1C[CH](O)CN1", "data": [{"compound": "CC(O)C1NC(=O)C(N)CC(O)C(O)NC(=O)C2C(O)CCN2C(=O)C(C(O)CC(N)=O)NC(=O)C(C(O)C(O)c2ccc(O)cc2)NC(=O)C2CC(O)CN2C1=O", "note": "(stereo not drawn) [non-acylated cyclohexapeptide compound] (H-[ξOrn(4,5-diOH)]T[Hyp][ξhTyr(βξ-OH,γξ-OH)][X1][X2]; lactam 1-C; configuration not given here)", "values": [{"measurement": "activity against Candida albicans", "result": "inactive"}]}]}
